PubChem BioAssay (NCI)
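Each compound was tested at five concentrations against cells in 96-well plates for 48 hours. GI50 = concentration required for 50% inhibition of growth. At the TGI there is no net growth.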

What was measured:
Assay in all cases: growth of human tumour cells (NCI), 48 h
NCI-H23 lung = system: NCI-H23 lung
SF-295 CNS = system: SF-295 CNS
K-562 leukemia = system: K-562 leukemia
NCI-H460 lung = system: NCI-H460 lung
CAKI-1 renal = system: CAKI-1 renal
HS 578T breast = system: HS 578T breast
SW-620 colon = system: SW-620 colon
HCT-15 colon = system: HCT-15 colon
OVCAR-8 ovarian = system: OVCAR-8 ovarian
SF-539 CNS = system: SF-539 CNS
RXF 393 renal = system: RXF 393 renal
DU-145 prostate = system: DU-145 prostate
HT29 colon = system: HT29 colon
LOX IMVI melanoma = system: LOX IMVI melanoma
MDA-MB-435 = system: MDA-MB-435
SK-MEL-28 melanoma = system: SK-MEL-28 melanoma
SF-268 CNS = system: SF-268 CNS
TK-10 renal = system: TK-10 renal
SK-OV-3 ovarian = system: SK-OV-3 ovarian
SK-MEL-5 melanoma = system: SK-MEL-5 melanoma
UO-31 renal = system: UO-31 renal
MOLT-4 leukemia = system: MOLT-4 leukemia
KM12 colon = system: KM12 colon
CCRF-CEM leukemia = system: CCRF-CEM leukemia
MALME-3M melanoma = system: MALME-3M melanoma
UACC-62 melanoma = system: UACC-62 melanoma
MCF7 breast = system: MCF7 breast
A549 NSCLC = system: A549 NSCLC
HOP-62 NSCLC = system: HOP-62 NSCLC
T-47D breast = system: T-47D breast
UACC-257 melanoma = system: UACC-257 melanoma
OVCAR-5 ovarian = system: OVCAR-5 ovarian
SN12C renal = system: SN12C renal
OVCAR-4 ovarian = system: OVCAR-4 ovarian
RPMI-8226 leukemia = system: RPMI-8226 leukemia
SNB-19 CNS = system: SNB-19 CNS
HCT-116 colon = system: HCT-116 colon
PC-3 prostate = system: PC-3 prostate
NCI/ADR-RES ovarian = system: NCI/ADR-RES ovarian
IGROV1 ovarian = system: IGROV1 ovarian
HCC-2998 colon = system: HCC-2998 colon
HL-60(TB) leukemia = system: HL-60(TB) leukemia
NCI-H226 lung = system: NCI-H226 lung
M14 melanoma = system: M14 melanoma
EKVX NSCLC = system: EKVX NSCLC
ACHN renal = system: ACHN renal
SR leukemia = system: SR leukemia
OVCAR-3 ovarian = system: OVCAR-3 ovarian
MDA-MB-231 breast = system: MDA-MB-231 breast
SK-MEL-2 melanoma = system: SK-MEL-2 melanoma
786-0 renal = system: 786-0 renal
COLO 205 colon = system: COLO 205 colon
SNB-75 CNS = system: SNB-75 CNS
HOP-92 NSCLC = system: HOP-92 NSCLC
A498 renal = system: A498 renal
U251 CNS = system: U251 CNS
NCI-H522 lung = system: NCI-H522 lung
BT-549 breast = system: BT-549 breast

O=C(NNc1nc2cc(F)ccc2n2cccc12)c1ccncn1
GI50 (NCI-H23 lung): 437 nM | TGI (NCI-H23 lung): > 30000 nM | GI50 (SF-295 CNS): 105 nM | TGI (SF-295 CNS): 6750 nM | GI50 (K-562 leukemia): 176 nM | TGI (K-562 leukemia): > 9890 nM | GI50 (NCI-H460 lung): 76.4 nM | TGI (NCI-H460 lung): > 7440 nM | GI50 (CAKI-1 renal): 295 nM | TGI (CAKI-1 renal): > 30000 nM | GI50 (HS 578T breast): 1810 nM | TGI (HS 578T breast): > 24900 nM | GI50 (SW-620 colon): 284 nM | TGI (SW-620 colon): > 24100 nM | GI50 (HCT-15 colon): 70.4 nM | TGI (HCT-15 colon): > 20200 nM | GI50 (OVCAR-8 ovarian): 277 nM | TGI (OVCAR-8 ovarian): > 28400 nM | GI50 (SF-539 CNS): 435 nM | TGI (SF-539 CNS): > 9300 nM | GI50 (RXF 393 renal): 612 nM | TGI (RXF 393 renal): 3070 nM | GI50 (DU-145 prostate): 348 nM | TGI (DU-145 prostate): > 23600 nM | GI50 (HT29 colon): 354 nM | TGI (HT29 colon): > 13500 nM | GI50 (LOX IMVI melanoma): 168 nM | TGI (LOX IMVI melanoma): > 9230 nM | GI50 (MDA-MB-435): 1170 nM | TGI (MDA-MB-435): > 30000 nM | GI50 (SK-MEL-28 melanoma): 567 nM | TGI (SK-MEL-28 melanoma): > 30000 nM | GI50 (SF-268 CNS): 234 nM | TGI (SF-268 CNS): > 30000 nM | GI50 (TK-10 renal): 361 nM | TGI (TK-10 renal): > 19000 nM | GI50 (SK-OV-3 ovarian): 363 nM | TGI (SK-OV-3 ovarian): 14000 nM | GI50 (SK-MEL-5 melanoma): 398 nM | TGI (SK-MEL-5 melanoma): 5410 nM | GI50 (UO-31 renal): 85.6 nM | TGI (UO-31 renal): 4180 nM | GI50 (MOLT-4 leukemia): 109 nM | GI50 (KM12 colon): 278 nM | TGI (KM12 colon): > 22500 nM | GI50 (CCRF-CEM leukemia): 32.7 nM | TGI (CCRF-CEM leukemia): 428 nM | GI50 (MALME-3M melanoma): 910 nM | TGI (MALME-3M melanoma): > 21200 nM | GI50 (UACC-62 melanoma): 255 nM | TGI (UACC-62 melanoma): 2490 nM | GI50 (MCF7 breast): 270 nM | TGI (MCF7 breast): > 15300 nM | GI50 (A549 NSCLC): 253 nM | TGI (A549 NSCLC): > 30000 nM | GI50 (HOP-62 NSCLC): 94.1 nM | TGI (HOP-62 NSCLC): 9120 nM | GI50 (T-47D breast): 301 nM | TGI (T-47D breast): > 18300 nM | GI50 (UACC-257 melanoma): 712 nM | TGI (UACC-257 melanoma): 8250 nM | GI50 (OVCAR-5 ovarian): 1300 nM | TGI (OVCAR-5 ovarian): > 30000 nM | GI50 (SN12C renal): 564 nM | TGI (SN12C renal): > 30000 nM | GI50 (OVCAR-4 ovarian): 162 nM | TGI (OVCAR-4 ovarian): > 8250 nM | GI50 (RPMI-8226 leukemia): 242 nM | TGI (RPMI-8226 leukemia): 2300 nM | GI50 (SNB-19 CNS): 396 nM | TGI (SNB-19 CNS): > 30000 nM | GI50 (HCT-116 colon): 153 nM | TGI (HCT-116 colon): > 11000 nM | GI50 (PC-3 prostate): 183 nM | TGI (PC-3 prostate): 13600 nM | GI50 (NCI/ADR-RES ovarian): 242 nM | TGI (NCI/ADR-RES ovarian): 9350 nM | GI50 (IGROV1 ovarian): 211 nM | TGI (IGROV1 ovarian): > 30000 nM | GI50 (HCC-2998 colon): 738 nM | TGI (HCC-2998 colon): > 23100 nM | GI50 (HL-60(TB) leukemia): 293 nM | GI50 (NCI-H226 lung): 548 nM | TGI (NCI-H226 lung): 10300 nM | GI50 (M14 melanoma): 255 nM | TGI (M14 melanoma): > 11000 nM | GI50 (EKVX NSCLC): 234 nM | TGI (EKVX NSCLC): > 16100 nM | GI50 (ACHN renal): 179 nM | TGI (ACHN renal): > 30000 nM | GI50 (SR leukemia): 71.1 nM | GI50 (OVCAR-3 ovarian): 191 nM | TGI (OVCAR-3 ovarian): > 7020 nM | GI50 (MDA-MB-231 breast): 766 nM | TGI (MDA-MB-231 breast): > 30000 nM | GI50 (SK-MEL-2 melanoma): 1130 nM | TGI (SK-MEL-2 melanoma): > 17000 nM | GI50 (786-0 renal): 412 nM | TGI (786-0 renal): > 15700 nM | GI50 (COLO 205 colon): 272 nM | TGI (COLO 205 colon): > 13500 nM | GI50 (SNB-75 CNS): 316 nM | TGI (SNB-75 CNS): > 25800 nM | GI50 (HOP-92 NSCLC): 287 nM | TGI (HOP-92 NSCLC): 11700 nM | GI50 (A498 renal): 745 nM | TGI (A498 renal): 3730 nM | GI50 (U251 CNS): 163 nM | TGI (U251 CNS): > 30000 nM | GI50 (NCI-H522 lung): 429 nM | TGI (NCI-H522 lung): > 6940 nM | GI50 (BT-549 breast): 841 nM | TGI (BT-549 breast): > 21300 nM
